Results on two compounds are retold here after patent US8071565B2 (Novartis AG, priority 2006, dated 2011).

The target of the experiment is adenosine A2A receptor (Homo sapiens, UniProt P29274). In words: adenosine A2A receptor agonist assay (method of Murphree et al, Mol Pharmacol 61, 455-462, 2002). The following applies: method of L. J. Murphree et al. Type of experiment: binding. The source says: Compounds of formula (I) and their pharmaceutically acceptable salts are useful as pharmaceuticals. In particular, they activate the adenosine A2A receptor, i.e., they act as A2A receptor agonists.
Chain of adenosine A2A receptor (P29274 whole entry): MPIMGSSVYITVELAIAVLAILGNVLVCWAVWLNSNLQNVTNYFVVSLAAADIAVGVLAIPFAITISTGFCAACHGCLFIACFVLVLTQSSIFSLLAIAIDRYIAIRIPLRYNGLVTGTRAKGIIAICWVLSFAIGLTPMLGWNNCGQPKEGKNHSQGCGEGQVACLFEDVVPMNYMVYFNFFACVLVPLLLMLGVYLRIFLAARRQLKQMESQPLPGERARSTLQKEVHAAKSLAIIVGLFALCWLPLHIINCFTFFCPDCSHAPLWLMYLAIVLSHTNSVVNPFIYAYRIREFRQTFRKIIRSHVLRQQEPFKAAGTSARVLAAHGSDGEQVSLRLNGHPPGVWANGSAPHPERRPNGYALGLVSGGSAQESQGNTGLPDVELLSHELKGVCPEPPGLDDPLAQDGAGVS

pKi: −log10 of the molar value. Counter-ions that a name gives are not always drawn.

With `C[C@@H]1NC(=O)N([C@H]2C[C@@H](n3cnc4c(NCC(c5ccccc5)c5ccccc5)nc(N5CC[C@@H](NC(=O)Nc6cccnc6)C5)nc43)[C@H](O)[C@@H]2O)C1=O` [Example C1], the pKi (usually the Ki on a negative log10 scale, so that one unit is a factor of ten) was 7.05.
The value for `O=C(Nc1cccnc1)N[C@@H]1CCN(c2nc(NCC(c3ccccc3)c3ccccc3)c3ncn([C@@H]4C[C@H](N5C(=O)CNC5=O)[C@@H](O)[C@H]4O)c3n2)C1` [Example C2, 1-{(R)-1-[9-[(1R,2S,3R,4S)-4-(2,5-Dioxo-imidazolidin-1-yl)-2,3-dihydroxy-cyclopentyl]-6-(2,2-diphenyl-ethylamino)-9H-purin-2-yl]-pyrrolidin-3-yl}-3-pyridin-3-yl-urea trifluoroacetate] was 7.48.
